From patent US20020086278A1, “CHROMOGENIC MEDIA CONTAINING BLOOD OR HEMIN” (priority 1999, published 2002)
Several values for one entry are separate records, joined by “and”; a condition that tells them apart may be missing. Identical values can stand only once. Counter-ions that a name gives are not always drawn. Like-named read-outs stand apart in the source and are kept apart here.

What was measured:
[1] = system: Haemophilus influenzae 10211; assay: Example 1: growth and colony color on plates surface-spread with chromogen; format: cell-based; settings: Substrate on Choclate II Agar, H. influ. 10211
[2] = system: Haemophilus influenzae 35540; assay: as above; format: cell-based; settings: for Color: Substrate on Choclate II Agar, H. influ. 35540
[3] = Solubility of chromogen in DMSO; format: physicochemical; settings: 0.08g in 1.0 ml DMSO
Experimental: In this series of experiments, 0.08g of each chromogen indicated below was added to 1.0 ml DMSO and thoroughly mixed.

N. sicca 29193 [4] = assay: Example 2: effect of incubation conditions on colony color formation; format: cell-based
S. epidermidis 12228 [5] = assay: Example 1: growth and colony color on plates surface-spread with chromogen; format: cell-based; settings: for Color: S. epi 12228
S. epidermidis 12228 [6] = assay: Example 2: effect of incubation conditions on colony color formation; format: cell-based, Staphylococcus epidermidis
[7] = system: E. coli (non-O157) (esco); format: cell-based; settings: for Colony Color (Summary): chromogenic TSA II with 5% Sheep Blood, 0.1 g/l, 3 strains tested
[8] = system: Staphylococcus aureus 25923; assay: Example 1: growth and colony color on plates surface-spread with chromogen; format: cell-based; settings: S. aureus 25923
[9] = system: bacterial test strains of Example 1; assay: Example 1: inhibitory effect over all test strains; format: cell-based; settings: Example 1, all test strains
[10] = Precipitate of chromogen on pre-plated media; format: physicochemical
Experimental: 50 μl of each chromogen solution was added to the surface of each of the following pre-plated media (one chromogen solution per plate):
The solution was dispersed using a spreader and allowed to dry 3-4 hours in a hood.

N. sicca 29193 [11] = assay: Example 1: growth and colony color on plates surface-spread with chromogen; format: cell-based
S. aureus 25923 = assay: Example 2: effect of incubation conditions on colony color formation; format: cell-based, Staphylococcus aureus
N. meningitidis 13090 = format: cell-based; settings: Chocolate II Agar, 0.004 g/plate; 24 h, CO2
[12] = system: Neisseria meningitidis 13090; assay: Example 1: growth and colony color on plates surface-spread with chromogen; format: cell-based
cakr 34135 = assay: Example 3: colony color on chromogenic TSA II with 5% sheep blood (chromogen in medium); format: cell-based
H. influenzae 35540 = assay: Example 2: effect of incubation conditions on colony color formation; format: cell-based
H. influenzae 10211 = assay: as above; format: cell-based
Escherichia coli 25922 = assay: Example 1: growth and colony color on plates surface-spread with chromogen; format: cell-based; settings: E. coli 25922; for Substrates Producing Color: Summary of Table I
Candida albicans (caal) = assay: Example 3: colony color on chromogenic TSA II with 5% sheep blood (chromogen in medium); format: cell-based; settings: for Colony Color (Summary): chromogenic TSA II with 5% Sheep Blood, 0.1 g/l, 2 strains tested
C. perfringens 13124 = format: cell-based, Clostridium perfringens; settings: TSA II 5% Sheep Blood, 0.004 g/plate; 5 d, ANA
S. mitis 6249 = assay: Example 2: effect of incubation conditions on colony color formation; format: cell-based, Streptococcus mitis; settings: TSA II 5% Sheep Blood, 0.004 g/plate; 24 h, CO2
S. pneumoniae 6303 = assay: as above; format: cell-based, Streptococcus pneumoniae; settings: TSA II 5% Sheep Blood, 0.004 g/plate; 24 h, CO2
[13] = system: Group D Strep / Enterococcus; assay: Example 3: colony color on chromogenic TSA II with 5% sheep blood (chromogen in medium); settings: 7 of 7 strains
55 strains = assay: Example 3: color, hemolytic activity and growth over all 55 strains; format: cell-based; settings: Gram-positives
Source text: Steers, E. et al., Antibiot.

Strep Grp G 27961 = assay: Example 2: effect of incubation conditions on colony color formation; format: cell-based, Streptococcus group G; settings: 0.004 g/plate, 24 h, CO2
S. agalactiae 4768 = assay: as above; format: cell-based, Streptococcus agalactiae; settings: 0.004 g/plate, 24 h, CO2
S. agalactiae 13813 = assay: as above; format: cell-based, Streptococcus agalactiae; settings: 0.004 g/plate, 24 h, CO2
S. agalactiae BD747 = assay: as above; format: cell-based, Streptococcus agalactiae; settings: 0.004 g/plate, 24 h, CO2
S. agalactiae BD11586 = assay: as above; format: cell-based, Streptococcus agalactiae; settings: Chocolate II Agar, 0.004 g/plate; 24 h, CO2
Strep Grp G 12394 = assay: as above; format: cell-based, Streptococcus group G; settings: 0.004 g/plate, 24 h, CO2
S. agalactiae 6638 = assay: as above; format: cell-based, Streptococcus agalactiae; settings: 0.004 g/plate, 24 h, CO2
Strep Grp C 12388 = assay: as above; format: cell-based, Streptococcus group C; settings: 0.004 g/plate, 24 h, CO2
[14] = Substrate on Choclate II Agar, N. mening. 13090

O=P(O)(O)Oc1c[nH]c2cc(Cl)c(Br)cc12 [Mag-Phos, 5-Br-6-Cl-3-indolyl-phosphate, p-touidine salt]
Color [1]: purple | Color ([1]; listed as Mag-phos): dark purple | Color [2]: purple | Color ([2]; listed as Mag-phos): dark purple | Substrates Producing Color ([2]; Summary of Table I, H. influenzae 35540, 10211): Mag-phos | Solubility / appearance of solution in DMSO [3]: clear and light orange in color | Colony Color (N. sicca 29193 [4]): purple (m) | Color (S. epidermidis 12228 [5]; Choc II): purple | Substrates Producing Color (S. epidermidis 12228 [5]; Summary of Table I, S. epidermidis 12228): Mag-phos | Color (S. epidermidis 12228 [5]; TSA II 5SB): purple | Color (S. epidermidis 12228 [5]; TSA Plain): purple | Colony Color (S. epidermidis 12228 [6]): purple (m) | Colony Color [7]: lp and lgb and 0 | Color ([8]; Choc II): purple | Substrates Producing Color ([8]; Summary of Table I): Mag-phos | Color ([8]; TSA II 5SB): purple | Color ([8]; TSA Plain): purple | Inhibitory effect [9]: most inhibitory effect | Precipitate when spread / placed on the plated media ([10]; 50 μl DMSO solution on pre-plated media): somewhat insoluble | Color (N. sicca 29193 [11]; Substrate on Choclate II Agar, N. sicca. 29193): purple | Substrates Producing Color (N. sicca 29193 [11]; Summary of Table I, N. sicca 29193): Mag-phos | Colony Color (S. aureus 25923): purple (m) | Colony Color (N. meningitidis 13090): NC (col | Growth [12]: = NC | Color [12, 14]: colorless | Colony Color (cakr 34135; CO2, 21 h): lgp | Colony Color (H. influenzae 35540): purple (m) | Colony Color (H. influenzae 10211): purple (m) | Color (Escherichia coli 25922; Choc II): purple | Substrates Producing Color (Escherichia coli 25922): Mag-phos | Color (Escherichia coli 25922; TSA II 5SB): purple | Color (Escherichia coli 25922; TSA Plain): purple | Colony Color (Candida albicans (caal); caal 10231, CO2, 24 h): 0 | Colony Color (Candida albicans (caal); caal 10231, air, 24 h): 0 | Colony Color (Summary) (Candida albicans (caal)): 0

CC(=O)N[C@H]1[C@H](Oc2c[nH]c3ccc(Br)c(Cl)c23)O[C@H](CO)[C@H](O)[C@@H]1O [X-Acglmn, 5-Br-4-Cl-3-indolyl-N-Acetyl-β-D-galactosaminide]
Colony Color (Summary) [7]: 0 | Colony Color ([7]; esco 11775, CO2, 18 h): 0 | Colony Color ([7]; esco 11775, CO2, 21 h): 0 | Colony Color ([7]; esco 25922, CO2, 24 h): 0 | Colony Color ([7]; esco 25922, air, 24 h): 0 | Colony Color ([7]; esco 33605, CO2, 18 h): 0 | Colony Color ([7]; esco 33605, CO2, 21 h): 0 | Precipitate on plates after 1 week [10]: some precipitate was evident | Colony Color (C. perfringens 13124): blue (l) | Growth [12, 14]: < | Substrates Producing Growth Inhibition ([12]; Summary of Table I, N. meningitidis 13090): Slight inhib w/ X- | Colony Color (S. mitis 6249): blue (vl) | Colony Color (S. pneumoniae 6303): blue (l) | Colony Color (cakr 34135; CO2, 18 h): 0 | Colony Color (cakr 34135; CO2, 21 h): 0 | Colony Color [13]: dark blue | Colony Color (Candida albicans (caal); caal 10231, CO2, 24 h): gb | Colony Color (Candida albicans (caal); caal 10231, air, 24 h): 0 | Colony Color (Summary) (Candida albicans (caal)): + | Colony Color (Candida albicans (caal); one C. albicans): blue

OC[C@H]1O[C@@H](Oc2c[nH]c3ccc(Br)c(Cl)c23)[C@H](O)[C@@H](O)[C@H]1O [X-Gal, 5-Br-4-Cl-3-indolyl-β-D-galactopyranoside]
Colony Color (Summary) [7]: + | Colony Color ([7]; esco 33605, CO2, 21 h): gb | Colony Color (C. perfringens 13124): blue (m) | Usefulness for Gram-positives (55 strains): not particularly useful | Colony Color (S. pneumoniae 6303): blue (l) | Colony Color (cakr 34135; CO2, 21 h): 0 | Color (Escherichia coli 25922; Choc II): blue | Substrates Producing Color (Escherichia coli 25922): X-Gal | Color (Escherichia coli 25922; TSA II 5SB): blue | Color (Escherichia coli 25922; TSA Plain): blue | Colony Color (Candida albicans (caal); caal 10231, CO2, 24 h): 0 | Colony Color (Candida albicans (caal); caal 10231, air, 24 h): 0 | Colony Color (Summary) (Candida albicans (caal)): 0

OC[C@H]1O[C@@H](Oc2c[nH]c3ccc(Br)c(Cl)c23)[C@H](O)[C@@H](O)[C@@H]1O [X-Glucoside, 5-Br-4-Cl-3-indolyl-β-D-glucopyranoside]
Colony Color (Summary) [7]: 0 | Colony Color ([7]; esco 11775, CO2, 18 h): 0 | Colony Color ([7]; esco 11775, CO2, 21 h): 0 | Colony Color ([7]; esco 25922, CO2, 24 h): 0 | Colony Color ([7]; esco 25922, air, 24 h): 0 | Colony Color ([7]; esco 33605, CO2, 18 h): 0 | Colony Color ([7]; esco 33605, CO2, 21 h): 0 | Precipitate on plates after 1 week [10]: some precipitate was evident | Colony Color (cakr 34135; CO2, 18 h): 0 | Colony Color (cakr 34135; CO2, 21 h): 0 | Colony Color [13]: blue | Growth (Escherichia coli 25922; TSA II 5SB): 4 | Colony Color (Candida albicans (caal); caal 10231, CO2, 18 h): 0 | Colony Color (Candida albicans (caal); caal 10231, CO2, 24 h): 0 | Colony Color (Candida albicans (caal); caal 10231, air, 24 h): 0 | Colony Color (Summary) (Candida albicans (caal)): 0

O=C(O)[C@H]1O[C@@H](Oc2c[nH]c3ccc(Br)c(Cl)c23)[C@H](O)[C@@H](O)[C@@H]1O [X-Glucuro, X-Glucuronide]
Colony Color (Strep Grp G 27961; Chocolate II Agar): blue (d) | Colony Color (Strep Grp G 27961; TSA II 5% Sheep Blood): blue (d) | Colony Color (S. agalactiae 4768; Chocolate II Agar): blue (l) | Colony Color (S. agalactiae 4768; TSA II 5% Sheep Blood): blue (l) | Colony Color (S. agalactiae 13813; Chocolate II Agar): blue (d) | Colony Color (S. agalactiae 13813; TSA II 5% Sheep Blood): blue (d) | Colony Color (S. agalactiae BD747; Chocolate II Agar): blue (l) | Colony Color (S. agalactiae BD747; TSA II 5% Sheep Blood): grey blue | Colony Color (S. agalactiae BD11586): blue (vl) | Colony Color (Summary) [7]: + | Colony Color (Strep Grp G 12394; Chocolate II Agar): blue (d) | Colony Color (Strep Grp G 12394; TSA II 5% Sheep Blood): grey blue | Colony Color (S. agalactiae 6638; Chocolate II Agar): blue (m) | Colony Color (S. agalactiae 6638; TSA II 5% Sheep Blood): blue (m) | Colony Color (Strep Grp C 12388; Chocolate II Agar): blue (d) | Colony Color (Strep Grp C 12388; TSA II 5% Sheep Blood): blue (d) | Colony Color (cakr 34135; CO2, 18 h): 0 | Color (Escherichia coli 25922; Choc II): blue | Substrates Producing Color (Escherichia coli 25922): X-Glucuro | Color (Escherichia coli 25922; TSA II 5SB): blue | Color (Escherichia coli 25922; TSA Plain): blue | Colony Color (Candida albicans (caal); caal 10231, CO2, 18 h): 0 | Colony Color (Summary) (Candida albicans (caal)): 0
